One series deals with HeLa cells. The experiment in a line: cytotoxicity against HeLa cells. The source says:
To evaluate the activity of 5a, it was used to treat HeLa cells; paclitaxel (1) was used as the control.

The nature of the next series: solubility. The class given is physicochemical.
Series [1] is described as follows: stability in water and in gel state. The class given is physicochemical. The source says:
Nicolaou, K. C.; Guy, R. K.; Pitsinos, E. N.; Wrasidlo, W. Angew. Chem. Intl. Ed.

This is an account of results in US9408921B2, “Antineoplastic hydrogels, and enzyme-instructed preparations thereof” (Brandeis University, priority 2009, dated 2016).

Several values for one entry are separate records, joined by “and”; a condition that tells them apart may be missing. Identical values can stand only once. Entries after “also recorded” stand apart in the source; their conditions may differ. Where a SMILES comes first, the peptide text is derived from it. [ ]: non-standard residue; d: D form. The star is where a group is joined. Paclitaxel(2'-O-succinyl) = CC(=O)O[C@H]1C(=O)[C@@]2(C)[C@H]([C@H](OC(=O)c3ccccc3)[C@]3(O)C[C@H](OC(=O)[C@H](OC(=O)CCC(=O)*)[C@@H](NC(=O)c4ccccc4)c4ccccc4)C(C)=C1C3(C)C)[C@]1(OC(C)=O)CO[C@@H]1C[C@@H]2O; Acetyl(2-naphthyl) = O=C(Cc1ccc2ccccc2c1)*; pY = N[C@@H](Cc1ccc(OP(=O)(O)O)cc1)C(=O)O Where only a bound is given, the exact number is not on record here.

As a reminder, the IC50 is the concentration needed to halve the response being measured. What is called solubility is the concentration that dissolves in the medium under given conditions. In the series with HeLa cells (HeLa cells, 48 h of incubation), `CC(=O)O[C@H]1C(=O)[C@@]2(C)[C@H]([C@H](OC(=O)c3ccccc3)[C@]3(O)C[C@H](OC(=O)[C@H](OC(=O)CCC(=O)NCCCC[C@H](NC(=O)[C@H](Cc4ccccc4)NC(=O)[C@H](Cc4ccccc4)NC(=O)Cc4ccc5ccccc5c4)C(=O)N[C@@H](Cc4ccc(O)cc4)C(=O)O)[C@@H](NC(=O)c4ccccc4)c4ccccc4)C(C)=C1C3(C)C)[C@]1(OC(C)=O)CO[C@@H]1C[C@@H]2O` [Compound 5b] ({Acetyl(2-naphthyl)}-FFK(Paclitaxel(2'-O-succinyl))Y-OH) registered an IC50 of 0.0514 ± 0.00769 µM. Besides, the solubility in “solubility” (in water) is 21.6 µg/mL and 12.7 µM. For the same compound, the “stability in gel state” value in series [1] (gel state, mass spectroscopic (MS) analysis) is “stable in gel state over weeks”.

In the series on HeLa cells (Homo sapiens, HeLa, 48 h), `CC(=O)O[C@H]1C(=O)[C@@]2(C)[C@H]([C@H](OC(=O)c3ccccc3)[C@]3(O)C[C@H](OC(=O)[C@H](O)[C@@H](NC(=O)c4ccccc4)c4ccccc4)C(C)=C1C3(C)C)[C@]1(OC(C)=O)CO[C@@H]1C[C@@H]2O` [Compound 1, Paclitaxel, reference compound] had a 50% inhibitory concentration (IC50) of 0.0473 ± 0.00299 µM.

For `NCCCC[C@H](NC(=O)[C@H](Cc1ccccc1)NC(=O)[C@H](Cc1ccccc1)NC(=O)Cc1ccc2ccccc2c1)C(=O)N[C@@H](Cc1ccc(OP(=O)(O)O)cc1)C(=O)O` [Compound 4, NapFFKYp] ({Acetyl(2-naphthyl)}-FFK[pY]-OH), the cytotoxicity in words result in the series with HeLa cells (HeLa cells) is given as “essentially biocompatible; also recorded: very limited toxicity”. This compound also returned an IC50 in the series on HeLa cells (HeLa cells, 48 h, highest concentration tested 500 μM) greater than 500 µM.

In the series on HeLa cells (HeLa cells, 48 h of incubation), `CC(=O)O[C@H]1C(=O)[C@@]2(C)[C@H]([C@H](OC(=O)c3ccccc3)[C@]3(O)C[C@H](OC(=O)[C@H](OC(=O)CCC(=O)NCCCC[C@H](NC(=O)[C@H](Cc4ccccc4)NC(=O)[C@H](Cc4ccccc4)NC(=O)Cc4ccc5ccccc5c4)C(=O)N[C@@H](Cc4ccc(OP(=O)(O)O)cc4)C(=O)O)[C@@H](NC(=O)c4ccccc4)c4ccccc4)C(C)=C1C3(C)C)[C@]1(OC(C)=O)CO[C@@H]1C[C@@H]2O` [Compound 5a] ({Acetyl(2-naphthyl)}-FFK(Paclitaxel(2'-O-succinyl))[pY]-OH) displayed a concentration for half-maximal inhibition (IC50) of 0.00997 ± 0.00205 µM. Moreover, the solubility in “solubility” (100 mM phosphate buffered saline (PBS) solution) is 7600 µg/mL and 4260 µM. In series [1] (in water, without a phosphatase), the stability in water entry is “hardly any dephosphorylation over months”.
